Data set [1] can be described thus: Plasma protein binding, equilibrium dialysis, human plasma. The class given is in vitro ADME. The following applies: pH 7.4, equilibrium dialysis (RED) 4 hours at 37° C., read-out: Plasma protein binding, fu, Human. The procedure: The fraction of unbound compound (fu) in plasma from human or other animal species was determined by equilibrium dialysis at 37° C. for 4 hours using the Rapid Equilibrium Dialysis (RED) device (ThermoFisher Scientific). The test compound at a concentration of 10 μM was added to plasma and dialyzed against isotonic phosphate buffer (67 mM, pH 7.4) over 4 hours at 37° C. After dialysis, compound concentrations in buffer and plasma were quantified by LC-MS/MS. In parallel the stability of the compound in plasma was determined by incubating drug-spiked plasma (10 μM) at 37° C. for 4 hours, meanwhile the control plasma sample was kept in the freezer. The concentration of the compound in both samples was quantified by LC-MS/MS (Waters Corp, Milford, MA, USA).
(In equilibrium dialysis free small molecules cross a membrane that holds back macromolecules.)

The target of the next data set is VIM-2 (Escherichia coli, UniProt Q5U7L7). Description: MBL inhibition, FC-5 fluorescence assay, VIM-2. The class given is biochemical. As to the method: (§1) Inhibitors were tested using a panel of the clinically relevant B1 MBLs (NDM-1, VIM-1, -2 and IMP-1). Activities were assayed by monitoring the release of a fluorophore following the enzymatic breakdown of the cephalosporin FC-5 (https://pubs.acs.org/doi/abs/10.1021/jm400769b). FC-5 assays were conducted in clear bottomed 384 black well microplates (Greiner); the initial rate of reaction was assessed by monitoring the fluorescence intensity (λex=380 nm and λem=460 nm) using a Pherstar FS (BMG LabTech) plate reader. Initial rates of reaction were determined and dose-response analyses conducted in GraphPad Prism. Dose-response curves were fitted using the log(inhibitor) vs normalized response—variable slope model of GraphPad Prism 12. Each concentration point for routine screening was conducted with 4 intra-plate replicates.

The next data set addresses VIM-1 (Pseudomonas aeruginosa, UniProt A0A0F7KYQ8). In words: MBL inhibition, FC-5 fluorescence assay, VIM-1. The class given is biochemical. The procedure:
as §1

A further data set concerns the target NDM-1 (Klebsiella pneumoniae, UniProt C7C422). Description: MBL inhibition, FC-5 fluorescence assay, NDM-1. It counts as biochemical. The procedure:
as §1

A further data set addresses IMP-1 (Serratia marcescens, UniProt P52699). Description: MBL inhibition, FC-5 fluorescence assay, IMP-1. The class given is biochemical. As to the method:
as §1

Where [2] appears, read: FC-5 cephalosporin substrate, ranges of obtained pIC50, read-out: pIC50 VIM-2 (converted).
Where [3] appears, read: FC-5 cephalosporin substrate, ranges of obtained pIC50, read-out: pIC50 VIM-1 (converted).
The mark [4] stands for this setting: FC-5 cephalosporin substrate, fluorescence, ranges of obtained pIC50, read-out: pIC50 NDM-1 (converted).
Where [5] appears, read: FC-5 cephalosporin substrate, fluorescence, ranges of obtained pIC50, read-out: pIC50 IMP-1 (converted).
Setting [6] is: pIC50 VIM-2, FC-5 cephalosporin substrate, ranges of obtained pIC50.
Where [7] appears, read: pIC50 VIM-1, FC-5 cephalosporin substrate, ranges of obtained pIC50.

Structures can show the parent of a compound that is named as a salt. Where two headings read alike, the source gives them in different places.

Sequence of NDM-1 (C7C422 29-270, looked up, species assumed): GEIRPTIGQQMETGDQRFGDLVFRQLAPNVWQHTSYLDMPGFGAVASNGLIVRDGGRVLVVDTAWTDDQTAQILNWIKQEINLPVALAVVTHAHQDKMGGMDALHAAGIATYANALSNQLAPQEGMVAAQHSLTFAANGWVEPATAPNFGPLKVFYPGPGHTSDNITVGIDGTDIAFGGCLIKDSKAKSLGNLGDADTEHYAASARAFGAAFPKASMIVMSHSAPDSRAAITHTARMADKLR
Sequence of IMP-1 (P52699 19-246, looked up, species assumed): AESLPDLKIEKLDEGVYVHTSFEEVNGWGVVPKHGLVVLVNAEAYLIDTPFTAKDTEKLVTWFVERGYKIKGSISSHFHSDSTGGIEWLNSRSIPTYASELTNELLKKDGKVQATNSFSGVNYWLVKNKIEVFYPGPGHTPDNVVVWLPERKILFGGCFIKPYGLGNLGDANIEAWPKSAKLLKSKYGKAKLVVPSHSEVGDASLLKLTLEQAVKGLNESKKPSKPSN

For the compound `CC(c1cccc2c(-c3ccc(CS(C)(=O)=O)c(F)c3)c(C(=O)O)[nH]c12)n1cc(CNS(N)(=O)=O)nn1` (centres unmarked) [IC-8, 3-(3-Fluoro-4-((methylsulfonyl)methyl)phenyl)-7-(1-(4-((sulfamoylamino)methyl)-1H-1,2,3-triazol-1-yl)ethyl)-1H-indole-2-carboxylic acid], the fraction unbound at 4 h, 10 μM in data set [1] was in the range of 0.05 to 0.25. Also, the IC50 was 1 to 10 nM at VIM-2 (setting [2]), above 10 nM on VIM-1 (setting [3]), above 10 nM at NDM-1 (setting [4]) and above 10 nM on IMP-1 (setting [5]).
`CC(c1cccc2c(-c3ccc(CS(C)(=O)=O)c(F)c3)c(C(=O)O)[nH]c12)n1cc(CCCNC(=N)N)oc1=O` (centres unmarked) [IC-73, 3-(3-Fluoro-4-((methylsulfonyl)methyl)phenyl)-7-(1-(5-(3-guanidinopropyl)-2-oxooxazol-3(2H)-yl)ethyl)-1H-indole-2-carboxylic acid hydrochloride]: the IC50 on VIM-2 (setting [2]) is 1 to 10 nM; at VIM-1 (setting [3]) it was 1 to 10 nM; on NDM-1 (setting [4]) it was 0.1 to 1 nM; on IMP-1 (setting [5]), above 10 nM.
With `CC(c1cccc2c(-c3ccc(CS(C)(=O)=O)c(F)c3)c(C(=O)O)[nH]c12)n1cc(CCCN(C)C)oc1=O` (centres unmarked) [IC-75, 7-(1-(5-(3-(Dimethylamino)propyl)-2-oxooxazol-3(2H)-yl)ethyl)-3-(3-fluoro-4-((methylsulfonyl)methyl)phenyl)-1H-indole-2-carboxylic acid], the IC50 is 1 to 10 nM on VIM-2 (setting [2]), 1 to 10 nM on VIM-1 (setting [3]), 0.1 to 1 nM on NDM-1 (setting [4]) and above 10 nM at IMP-1 (setting [5]).
As for `CC(c1cccc2c(-c3ccc(CS(C)(=O)=O)c(F)c3)c(C(=O)O)[nH]c12)n1cc(CCC[N+](C)(C)C)oc1=O` (centres unmarked) [IC-76, 3-(3-(1-(2-carboxy-3-(3-fluoro-4-((methylsulfonyl)methyl)phenyl)-1H-indol-7-yl)ethyl)-2-oxo-2,3-dihydrooxazol-5-yl)-N,N,N-trimethylpropan-1-aminium], the IC50 against VIM-2 (setting [6]) was above 10 nM; against VIM-1 (setting [7]) it was above 10 nM; against NDM-1, 1 to 10 nM; against IMP-1, above 10 nM.
For the compound `CC(c1cccc2c(-c3ccc(CS(C)(=O)=O)c(F)c3)c(C(=O)O)[nH]c12)n1cc(CO)oc1=O` (centres unmarked) [IC-78, 3-(3-Fluoro-4-((methylsulfonyl)methyl)phenyl)-7-(1-(5-(hydroxymethyl)-2-oxooxazol-3(2H)-yl)ethyl)-1H-indole-2-carboxylic acid], the IC50 at VIM-2 (setting [2]) was above 10 nM; on VIM-1 (setting [3]), above 10 nM; on NDM-1 (setting [4]), 1 to 10 nM; at IMP-1 (setting [5]) it was above 10 nM.
Consider `CC(c1cccc2c(-c3ccc(CS(C)(=O)=O)c(F)c3)c(C(=O)O)[nH]c12)n1cc(CN2CC[C@H](N)C2)oc1=O` (stereo partly drawn) [IC-81, 7-[1-[5-[[(3S)-3-Aminopyrrolidin-1-yl]methyl]-2-oxo-oxazol-3-yl]ethyl]-3-[3-fluoro-4-(methylsulfonylmethyl)phenyl]-1H-indole-2-carboxylic acid], for which the IC50 on VIM-2 (setting [2]) is 1 to 10 nM; on VIM-1 (setting [3]) it was 1 to 10 nM; at NDM-1 (setting [4]), 0.1 to 1 nM; on IMP-1 (setting [5]), above 10 nM.
As to `CC(c1cccc2c(-c3ccc(CS(C)(=O)=O)c(F)c3)c(C(=O)O)[nH]c12)n1cc(CN2CC[C@@H](N)C2)oc1=O` (stereo partly drawn) [IC-82, 7-[1-[5-[[(3R)-3-Aminopyrrolidin-1-yl]methyl]-2-oxo-oxazol-3-yl]ethyl]-3-[3-fluoro-4-(methylsulfonylmethyl)phenyl]-1H-indole-2-carboxylic acid], the IC50 at VIM-2 (setting [2]) is 0.1 to 1 nM; at VIM-1 (setting [3]), 1 to 10 nM; on NDM-1 (setting [4]), 0.1 to 1 nM; at IMP-1 (setting [5]), above 10 nM.
For the compound `CS(=O)(=O)Cc1ccc(-c2c(C(=O)O)[nH]c3c(COCc4ccc(CN)cc4)cccc23)cc1F` [IC-85, 7-(((4-(Ammoniomethyl)benzyl)oxy)methyl)-3-(3-fluoro-4-((methylsulfonyl)methyl)phenyl)-1H-indole-2-carboxylate], the IC50 on VIM-2 (setting [2]) was above 10 nM; at VIM-1 (setting [3]), above 10 nM; on NDM-1 (setting [4]) it was 0.1 to 1 nM; on IMP-1 (setting [5]) it was above 10 nM.
Consider `CC(OCc1cnn[nH]1)c1cccc2c(-c3ccc(CS(C)(=O)=O)c(F)c3)c(C(=O)O)[nH]c12` (centres unmarked) [IC-91, 7-(1-((1H-1,2,3-triazol-5-yl)methoxy)ethyl)-3-(3-fluoro-4-((methylsulfonyl)methyl)phenyl)-1H-indole-2-carboxylic acid], for which the IC50 on VIM-2 (setting [2]), at VIM-1 (setting [3]), at NDM-1 (setting [4]) and at IMP-1 (setting [5]) was above 10 nM in each case.
For the compound `CC(Nc1ncc(CCCN)o1)c1cccc2c(-c3ccc(CS(C)(=O)=O)c(F)c3)c(C(=O)O)[nH]c12` (centres unmarked) [IC-93, 7-(1-((5-(3-Aminopropyl)oxazol-2-yl)amino)ethyl)-3-(3-fluoro-4-((methylsulfonyl)methyl)phenyl)-1H-indole-2-carboxylic acid], the IC50 on VIM-2 (setting [2]) is 1 to 10 nM; on VIM-1 (setting [3]) it was above 10 nM; on NDM-1 (setting [4]), 1 to 10 nM; at IMP-1 (setting [5]) it was above 10 nM.
Consider `CC(Nc1ncc(CCN)o1)c1cccc2c(-c3ccc(CS(C)(=O)=O)c(F)c3)c(C(=O)O)[nH]c12` (centres unmarked) [IC-94, 7-(1-((5-(2-aminoethyl)oxazol-2-yl)amino)ethyl)-3-(3-fluoro-4-((methylsulfonyl)methyl)phenyl)-1H-indole-2-carboxylic acid], for which the IC50 is 1 to 10 nM on VIM-2 (setting [2]), above 10 nM at VIM-1 (setting [3]), 1 to 10 nM on NDM-1 (setting [4]) and above 10 nM on IMP-1 (setting [5]).
Take `CC(OC(=O)Nc1ccc(CN)cc1)c1cccc2c(-c3ccc(CS(C)(=O)=O)c(F)c3)c(C(=O)O)[nH]c12` (centres unmarked) [IC-96, 7-(1-(((4-(Aminomethyl)phenyl)carbamoyl)oxy)ethyl)-3-(3-fluoro-4-((methylsulfonyl)methyl)phenyl)-1H-indole-2-carboxylic acid]: the IC50 at VIM-2 (setting [2]) was 1 to 10 nM; at VIM-1 (setting [3]), above 10 nM; on NDM-1 (setting [4]) it was 1 to 10 nM; at IMP-1 (setting [5]), above 10 nM.
In the case of `CC(c1cccc2c(-c3ccc(CS(C)(=O)=O)c(F)c3)c(C(=O)O)[nH]c12)N1C(=O)c2cc(O)c(O)cc2C1=O` (centres unmarked) [IC-98, 7-[1-(5,6-Dihydroxy-1,3-dioxo-2,3-dihydro-1H-isoindol-2-yl)ethyl]-3-[3-fluoro-4-(methanesulfonylmethyl)phenyl]-1H-indole-2-carboxylic acid], the IC50 at VIM-2 (setting [2]), on VIM-1 (setting [3]), at NDM-1 (setting [4]) and at IMP-1 (setting [5]) was above 10 nM in each case.
Turning to `CC(NC(=O)Oc1ccc(CN)cc1)c1cccc2c(-c3ccc(CS(C)(=O)=O)c(F)c3)c(C(=O)O)[nH]c12` (centres unmarked) [IC-101, 7-(1-(((4-(aminomethyl)phenoxy)carbonyl)amino)ethyl)-3-(3-fluoro-4-((methylsulfonyl)methyl)phenyl)-1H-indole-2-carboxylic acid], the IC50 was 1 to 10 nM at VIM-2 (setting [6]), above 10 nM against VIM-1 (setting [7]), 1 to 10 nM on NDM-1 and above 10 nM on IMP-1.
Turning to `CC(NC(=O)Nc1ccc(CN)cc1)c1cccc2c(-c3ccc(CS(C)(=O)=O)c(F)c3)c(C(=O)O)[nH]c12` (centres unmarked) [IC-102, 7-(1-(3-(4-(aminomethyl)phenyl)ureido)ethyl)-3-(3-fluoro-4-((methylsulfonyl)methyl)phenyl)-1H-indole-2-carboxylic acid], the IC50 on VIM-2 (setting [2]) is 1 to 10 nM; at VIM-1 (setting [3]), above 10 nM; on NDM-1 (setting [4]), 1 to 10 nM; on IMP-1 (setting [5]), above 10 nM.
Consider `C[C@@H](c1cccc2c(-c3ccc(CS(C)(=O)=O)c(F)c3)c(-c3nnn[nH]3)[nH]c12)N1C[C@]2(C[C@@H](CN)C2)OC1=O` [IC-107, (2S,4r)-2-(Aminomethyl)-7-((S)-1-(3-(3-fluoro-4-((methylsulfonyl)methyl)phenyl)-2-(1H-tetrazole-5-yl)-1H-indol-7-yl)ethyl)-5-oxa-7-azaspiro[3.4]octan-6-one], for which the IC50 was above 10 nM at VIM-2 (setting [2]), 1 to 10 nM on VIM-1 (setting [3]), 1 to 10 nM at NDM-1 (setting [4]) and above 10 nM at IMP-1 (setting [5]).
